Test results as given in paper PMC6199744, “Development of Chemical Proteomics for the Folateome and Analysis of the Kinetoplastid Folateome” (ACS Infectious Diseases, 2018).
Where two headings read alike, the source gives them in different places.

Experiments:
Type in all cases: binding
[1] = molecular target: T1, HeLa cell extract proteins (Homo sapiens, UniProt Q9H2U1)
T1 construct: endogenous in cells; host or cells: HeLa cell extract
T1 sequence (Q9H2U1 1-1008): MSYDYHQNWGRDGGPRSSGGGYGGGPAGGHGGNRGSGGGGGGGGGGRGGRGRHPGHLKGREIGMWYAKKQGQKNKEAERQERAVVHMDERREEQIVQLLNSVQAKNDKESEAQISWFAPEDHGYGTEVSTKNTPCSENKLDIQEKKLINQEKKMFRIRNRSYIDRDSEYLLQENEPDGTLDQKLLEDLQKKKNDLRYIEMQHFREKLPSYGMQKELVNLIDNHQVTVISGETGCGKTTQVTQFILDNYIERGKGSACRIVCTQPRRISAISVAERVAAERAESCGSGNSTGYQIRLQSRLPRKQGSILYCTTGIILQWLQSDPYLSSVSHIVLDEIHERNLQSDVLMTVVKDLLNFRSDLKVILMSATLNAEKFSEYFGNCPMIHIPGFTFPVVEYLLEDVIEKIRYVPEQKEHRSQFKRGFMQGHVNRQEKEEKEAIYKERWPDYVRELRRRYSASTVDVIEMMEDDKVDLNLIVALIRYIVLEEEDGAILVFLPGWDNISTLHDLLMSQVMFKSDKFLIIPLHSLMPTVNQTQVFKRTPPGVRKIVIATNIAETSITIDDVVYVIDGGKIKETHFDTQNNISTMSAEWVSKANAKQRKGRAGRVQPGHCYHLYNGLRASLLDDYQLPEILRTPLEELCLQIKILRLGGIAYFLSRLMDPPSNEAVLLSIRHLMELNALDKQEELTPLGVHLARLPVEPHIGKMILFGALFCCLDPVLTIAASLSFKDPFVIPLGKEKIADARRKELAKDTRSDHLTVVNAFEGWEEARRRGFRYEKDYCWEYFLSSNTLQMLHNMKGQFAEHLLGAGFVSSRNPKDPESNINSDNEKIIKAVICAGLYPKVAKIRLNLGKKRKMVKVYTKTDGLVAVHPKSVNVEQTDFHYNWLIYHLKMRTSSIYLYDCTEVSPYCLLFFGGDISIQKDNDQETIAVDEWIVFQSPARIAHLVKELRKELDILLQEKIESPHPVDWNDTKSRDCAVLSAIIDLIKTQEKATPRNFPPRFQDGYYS

[2] = molecular target: T2, HeLa cell extract proteins (Homo sapiens, UniProt P27824)
T2 construct: endogenous in cells; host or cells: HeLa cell extract
T2 sequence (P27824 21-592): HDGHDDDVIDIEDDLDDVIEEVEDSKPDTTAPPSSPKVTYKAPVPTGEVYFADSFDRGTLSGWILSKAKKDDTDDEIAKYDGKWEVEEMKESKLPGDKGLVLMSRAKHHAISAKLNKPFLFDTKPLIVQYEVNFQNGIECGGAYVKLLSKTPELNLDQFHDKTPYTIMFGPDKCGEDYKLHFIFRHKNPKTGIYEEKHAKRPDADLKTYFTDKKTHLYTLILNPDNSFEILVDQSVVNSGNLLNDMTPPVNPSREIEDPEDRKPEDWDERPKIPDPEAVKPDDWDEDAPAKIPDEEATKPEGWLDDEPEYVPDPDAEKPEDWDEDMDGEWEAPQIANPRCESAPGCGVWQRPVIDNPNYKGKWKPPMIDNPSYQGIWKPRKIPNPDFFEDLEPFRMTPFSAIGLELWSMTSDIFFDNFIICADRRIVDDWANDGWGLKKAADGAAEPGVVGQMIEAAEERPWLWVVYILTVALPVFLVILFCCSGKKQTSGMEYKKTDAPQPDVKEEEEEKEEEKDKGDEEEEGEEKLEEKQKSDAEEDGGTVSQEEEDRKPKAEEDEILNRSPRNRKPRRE

[3] = molecular target: T3, HeLa cell extract proteins (Homo sapiens, UniProt Q9BUJ2)
T3 construct: endogenous in cells; host or cells: HeLa cell extract
T3 sequence (Q9BUJ2 1-856): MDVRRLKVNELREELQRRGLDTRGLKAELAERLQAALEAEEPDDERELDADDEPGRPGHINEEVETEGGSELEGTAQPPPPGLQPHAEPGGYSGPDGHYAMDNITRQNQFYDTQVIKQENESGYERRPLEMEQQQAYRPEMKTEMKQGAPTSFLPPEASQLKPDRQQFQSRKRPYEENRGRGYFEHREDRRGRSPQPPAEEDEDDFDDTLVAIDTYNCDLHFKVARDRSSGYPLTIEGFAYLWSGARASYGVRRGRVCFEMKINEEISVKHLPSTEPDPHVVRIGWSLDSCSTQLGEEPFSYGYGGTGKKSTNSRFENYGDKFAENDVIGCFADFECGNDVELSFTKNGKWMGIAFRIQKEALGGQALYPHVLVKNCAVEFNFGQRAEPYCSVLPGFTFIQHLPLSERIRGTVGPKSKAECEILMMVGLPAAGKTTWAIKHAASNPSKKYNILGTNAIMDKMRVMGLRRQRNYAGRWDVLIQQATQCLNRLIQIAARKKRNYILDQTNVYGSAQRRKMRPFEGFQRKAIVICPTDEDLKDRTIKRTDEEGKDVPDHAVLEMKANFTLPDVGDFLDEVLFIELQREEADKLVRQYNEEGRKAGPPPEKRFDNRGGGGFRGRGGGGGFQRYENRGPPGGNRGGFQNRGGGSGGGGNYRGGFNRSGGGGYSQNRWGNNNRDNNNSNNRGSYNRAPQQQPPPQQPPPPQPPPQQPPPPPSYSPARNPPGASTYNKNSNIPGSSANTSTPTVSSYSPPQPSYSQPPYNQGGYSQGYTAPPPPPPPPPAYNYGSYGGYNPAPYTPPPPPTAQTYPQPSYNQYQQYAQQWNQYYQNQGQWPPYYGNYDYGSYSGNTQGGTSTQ

[4] = HeLa, protein DHX36 (ISOFORM 1 OF PROBABLE ATP-DEPENDENT RNA HELICASE DHX36)
[5] = HeLa, captured protein HNRNPUL1

Compound | fold changes relative to vehicle control [1, 4] | fold changes relative to vehicle control ([2]; HeLa, captured protein CANX) | fold changes relative to vehicle control [3, 5] | fold changes relative to vehicle control ([1]; protein DHX36, HeLa) | fold changes relative to vehicle control ([2]; protein CANX, HeLa) | fold changes relative to vehicle control ([3]; protein HNRNPUL1, HeLa) | further results
Nc1nc2c(c(=O)[nH]1)N(C=O)C(CNc1ccc(C(=O)N[C@@H](CCC(=O)O)C(=O)O)cc1)CN2 (stereo partly drawn) [LEU, leucovorin] | 1.12 | 1.09 | 0.99 | – | – | – | –
Nc1nc2[nH]cc(CCc3ccc(C(=O)N[C@@H](CCC(=O)O)C(=O)O)cc3)c2c(=O)[nH]1 [PTX, pemetrexed] | – | – | – | – | – | – | fold changes relative to vehicle control [1]: 0.99; fold changes relative to vehicle control [2]: 1.25; fold changes relative to vehicle control [3]: 1.04
CCCCCCOc1ccc(Cc2cnc(N)nc2N)cc1 [compound 1] | – | – | – | 1.17 | 1.3 | 0.83 | –
CCCCCCOc1cccc(Cc2cnc(N)nc2N)c1 [compound 2] | – | – | – | 0.91 | 2.38 | 0.86 | –
Nc1nc2cccc(-c3ccccc3)c2n1Cc1ccc(Cl)c(Cl)c1 [compound 3] | – | – | – | 0.98 | 0.92 | 0.89 | –
NCCOCCOCC(=O)Nc1nc2ncc(CNc3ccc(C(=O)NC(CCC(=O)O)C(=O)O)cc3)nc2c(=O)[nH]1 (stereo not drawn) [compound 6] | 1.07 | 1.35 | 1.05 | – | – | – | –
NCCCNc1ccc(C(=O)NC(CCC(=O)O)C(=O)O)cc1 (stereo not drawn) [compound 7] | 1.03 | 1.06 | 1.07 | – | – | – | –
